Test results: patent EP4656642A1, “ESTROGEN RECEPTOR PROTEOLYSIS TARGETING CHIMERA COMPOUND AND USE THEREOF” (GAN & LEE PHARM CO., LTD, priority 2023, dated 2024)
pIC50: −log10 of the molar value.

What was measured:
Assay type in all cases: cell-based
[1] = biological target: T1, ERα (Homo sapiens, UniProt P03372); assay: Degradation of ERα in MCF-7 cells (immunoblotting, 4 h)
T1 sequence (P03372 1-595): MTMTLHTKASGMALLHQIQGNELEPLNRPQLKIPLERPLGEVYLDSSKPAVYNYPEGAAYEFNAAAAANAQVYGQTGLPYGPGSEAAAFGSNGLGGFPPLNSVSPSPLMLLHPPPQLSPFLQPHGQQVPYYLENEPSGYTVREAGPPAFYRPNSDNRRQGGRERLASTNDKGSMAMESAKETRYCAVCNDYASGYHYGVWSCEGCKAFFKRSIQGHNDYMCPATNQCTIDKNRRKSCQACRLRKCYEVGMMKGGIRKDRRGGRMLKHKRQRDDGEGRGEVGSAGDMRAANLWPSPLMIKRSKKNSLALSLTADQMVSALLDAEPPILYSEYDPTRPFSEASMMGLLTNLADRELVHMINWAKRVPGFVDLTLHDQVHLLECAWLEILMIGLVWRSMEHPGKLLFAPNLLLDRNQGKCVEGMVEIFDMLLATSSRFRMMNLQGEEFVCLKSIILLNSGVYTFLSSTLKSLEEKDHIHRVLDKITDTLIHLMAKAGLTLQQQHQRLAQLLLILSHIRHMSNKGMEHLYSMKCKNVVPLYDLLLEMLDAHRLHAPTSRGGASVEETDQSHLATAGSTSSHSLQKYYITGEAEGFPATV
Method in brief: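 Degradation rate reflects ERα band intensity, corrected to an internal reference protein, relative to control. Values come from Western blotting of lysates from MCF-7 cells exposed 4 h at 37°C to compounds at final concentrations of 0.15-1000nM.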

[2] = tested on: MCF-7 cells; assay: Inhibition of cell proliferation of MCF-7 cells (CCK-8, 9 days); conditions: treated for 9 days, CCK-8 kit (Table 6)
Method in brief: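 Read-out was CCK-8 viability after 9-day continuous exposure (37°C, 5% CO2) of MCF-7 cells plated at 800/well in 10% FBS DMEM across several compound concentrations. Values are proliferation IC50s.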

[3] = biological target: T1, ERα; assay: Degradation of ERα in T-47D cells (immunoblotting, 4 h); design: host or cells: T-47D
Method in brief: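 ERα protein levels were assessed by immunoblot of RIPA lysates (with protease inhibitor) after 4 h exposure at 37°C. Compound was added in DMSO to T-47D cells at final concentrations of 0.15-1000 nM.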

SMILES	Degradation rate (%) of ERα in MCF-7 cells ([1]; 1nM compound)	Degradation rate (%) of ERα in MCF-7 cells ([1]; 10nM compound)	pIC50 [2]	Degradation rate (%) of ERα in T-47D cells ([3]; 1nM compound)	Degradation rate (%) of ERα in T-47D cells ([3]; 10nM compound)
O=C1CCC(N2Cc3c(ccc4c3OCC43CCN(C4CC5CCCC(C4)N5C(=O)C4CCN(c5ccc([C@@H]6c7ccc(O)cc7CC[C@@H]6c6ccccc6)cc5)CC4)CC3)C2=O)C(=O)N1 (some centres unmarked) [D1]	19%	68%	8.04	34%	83%
O=C1CCC(N2Cc3c(ccc4c3OCC43CCN(CC4CCC(N5CCN(c6ccc([C@@H]7c8ccc(O)cc8CC[C@@H]7c7ccccc7)cc6)CC5)CC4)CC3)C2=O)C(=O)N1 (some centres unmarked) [H15]	29%	51%	7.36	5%	56%
O=C1CCC(N2Cc3c(ccc4c3OCC43CCN(C(=O)CN4CCC5(CC4)CN(c4ccc([C@@H]6c7ccc(O)cc7CC[C@@H]6c6ccccc6)cc4)C5)CC3)C2=O)C(=O)N1 (some centres unmarked) [B17]	37%	61%	7.78	52%	76%
C[C@@H]1Cc2cc(O)ccc2C(c2c(F)cc(N3CCN(C[C@H]4CC[C@H](C(=O)N5CCC6(CC5)COc5c6ccc6c5CN(C5CCC(=O)NC5=O)C6=O)CC4)CC3)cc2F)N1CC(F)F (some centres unmarked) [I6]	57%	45%	8.18	56%	65%
O=C1CCC(N2Cc3c(ccc4c3OCC43CCN(CC(=O)N4CCC5(CCN(c6ccc([C@@H]7c8ccc(O)cc8CC[C@@H]7c7ccccc7)cc6)CC5)C4)CC3)C2=O)C(=O)N1 (some centres unmarked) [A73]	26%	72%	5.38	55%	73%
O=C1CCC(N2Cc3ccc4c(c3C2=O)OCC2(CCN(C3CCC5(CC3)CN(c3ccc([C@@H]6c7ccc(O)cc7CC[C@@H]6c6ccccc6)cc3)C5)CC2)C4)C(=O)N1 (some centres unmarked) [L6]	14%	45%	6.03	29%	68%
O=C1CCC(N2Cc3c(ccc4c3OCC43CCN(C4CC5CCC(C4)N5C(=O)C4CCN(c5ccc([C@@H]6c7ccc(O)cc7CC[C@@H]6c6ccccc6)cc5)CC4)CC3)C2=O)C(=O)N1 (some centres unmarked) [G10]	45%	66%	7.74	62%	85%
COC1(CN2CCC3(CC2)COc2c3ccc3c2CN(C2CCC(=O)NC2=O)C3=O)CCN(C(=O)C2CCN(c3ccc([C@@H]4c5ccc(O)cc5CC[C@@H]4c4ccccc4)cc3)CC2)CC1 (some centres unmarked) [D6]	38%	59%	4.48	59%	84%
O=C1CCC(N2Cc3c(ccc4c3OCC43CCN(CC(=O)N4CCC5(CC4)CN(c4ccc([C@@H]6c7ccc(O)cc7CC[C@@H]6c6ccccc6)cc4)C5)CC3)C2=O)C(=O)N1 (some centres unmarked) [B22]	38%	70%	7.93	47%	83%
O=C1CCC(N2Cc3c(ccc4c3OCC43CCN(C4CCN(C(=O)C5CCC6(CC5)CN(c5ccc([C@@H]7c8ccc(O)cc8CC[C@@H]7c7ccccc7)cc5)C6)CC4)CC3)C2=O)C(=O)N1 (some centres unmarked) [A84]	63%	74%	8.28	56%	77%
O=C1CCC(N2Cc3cc4c(cc3C2=O)CCC2(CN(C3CCN(C(=O)c5ccc([C@@H]6c7ccc(O)cc7CC[C@@H]6c6ccccc6)cc5)CC3)C2)O4)C(=O)N1 (some centres unmarked) [H10]	-28%	-4%	5.03	0%	36%
O=C1CCC(N2Cc3c(ccc4c3OCC43CCN(C(=O)CN4CCC5(CC4)CCN(c4ccc([C@@H]6c7ccc(O)cc7CC[C@@H]6c6ccccc6)cc4)CC5)CC3)C2=O)C(=O)N1 (some centres unmarked) [A62]	52%	82%	7.82	73%	89%
O=C1CCC(N2Cc3c(ccc4c3OCC43CCN(CC(=O)N(CC4CC4)C4CC5(CCN(c6ccc([C@@H]7c8ccc(O)cc8CC[C@@H]7c7ccccc7)cc6)CC5)C4)CC3)C2=O)C(=O)N1 (some centres unmarked) [H54]	11%	44%	6.59	24%	60%
O=C1CCC(N2Cc3c(ccc4c3OCC43CCN(CCN4CCC5(CC4)CCN(c4ccc([C@@H]6c7ccc(O)cc7CC[C@@H]6c6ccccc6)cc4)CC5)CC3)C2=O)C(=O)N1 (some centres unmarked) [A71]	32%	73%	7.84	52%	86%
C[C@H]1C[C@@H](N2CCC3(CC2)COc2c3ccc3c2CN(C2CCC(=O)NC2=O)C3=O)CCN1C(=O)C1CCN(c2ccc([C@@H]3c4ccc(O)cc4CC[C@@H]3c3ccccc3)cc2)CC1 (some centres unmarked) [G11]	38%	56%	6.05	55%	80%
O=C1CCC(N2Cc3c(ccc4c3OCC43CCN(C(=O)CN4CCC(OC5CCN(c6ccc([C@@H]7c8ccc(O)cc8CC[C@@H]7c7ccccc7)cc6)CC5)CC4)CC3)C2=O)C(=O)N1 (some centres unmarked) [K47]	57%	80%	7.10	74%	89%
O=C1CCC(N2Cc3cc4c(cc3C2=O)OC2(CC4)CN(C3CC4(CCC5(CC4)CN(c4ccc([C@@H]6c7ccc(O)cc7CC[C@@H]6c6ccccc6)cc4)C5)C3)C2)C(=O)N1 (some centres unmarked) [H26]	-9%	-11%	5.90	1%	2%
O=C1CCC(N2Cc3c(ccc4c3OCC43CCN(C(=O)C4CCN(CC5CCN(c6ccc([C@@H]7c8ccc(O)cc8CC[C@@H]7c7ccccc7)cc6)CC5)CC4)CC3)C2=O)C(=O)N1 (some centres unmarked) [J8]	78%	85%	8.31	79%	81%
O=C1CCC(N2Cc3c(ccc4c3OCC43CCN(C(=O)C4CN(CC5CCN(c6ccc([C@@H]7c8ccc(O)cc8CC[C@@H]7c7ccccc7)cc6)CC5)C4)CC3)C2=O)C(=O)N1 (some centres unmarked) [K33]	57%	62%	7.76	58%	70%
